Experimental data taken from BigSolDB 2.1.

CCCSc1ccc2nc(NC(=O)OC)[nH]c2c1
solubility (mole fraction)
Conditions	in acetone	in ethanol	in ethyl acetate	in isobutyl acetate	in isopropanol	in methanol	in n-butanol	in n-butyl acetate	in n-propanol	in n-propyl acetate
278.15 K	0.00148	5.59e-05	0.00053	0.000491	9.89e-05	9.62e-05	0.00021	0.000553	0.00017	0.000468
283.15 K	0.00173	7.25e-05	0.000596	0.000542	0.000128	0.000114	0.000254	0.000609	0.000192	0.00054
288.15 K	0.00204	9.39e-05	0.000688	0.000594	0.000156	0.000133	0.000298	0.000691	0.00023	0.000598
293.15 K	0.00253	0.00011	0.000805	0.000671	0.000187	0.000157	0.000343	0.000783	0.000276	0.000673
298.15 K	0.00302	0.00014	0.000925	0.000749	0.000234	0.000174	0.000402	0.000873	0.000325	0.000777
303.15 K	0.00349	0.000182	0.00103	0.000799	0.000272	0.000205	0.000473	0.000983	0.000371	0.000858
308.15 K	0.00389	0.000234	0.00119	0.000873	0.000328	0.000257	0.000558	0.0011	0.000423	0.000962
313.15 K	0.00442	0.000297	0.00133	0.000964	0.000394	0.000298	0.00063	0.0012	0.000488	0.00106
318.15 K	0.00528	0.000364	0.0015	0.00109	0.000456	0.000363	0.000738	0.00132	0.000569	0.00117
323.15 K	0.00589	0.000452	0.00167	0.00119	0.000553	0.000428	0.000829	0.00146	0.000624	0.0013
